Results reported in ChEMBL document CHEMBL5335866, “Structure-Based Optimization of Selective and Brain Penetrant CK1δ Inhibitors for the Treatment of Circadian Disruptions” (ACS Med Chem Lett, 2024).
Activity calls are given as the source filed them. The rule behind the calls is not given here.

Legend:
[1] = tested on: Mus musculus; assay: Effect on circadian rhythms in C57BL/6 mouse assessed as phase shift at 10 to 30 mg/kg, sc qd measured after 1 to 10 days by wheel running assay; format: functional, organism-based; conditions: dose 10-30 mg/kg, time 1-10 day, tested as the 2H-labelled form
[2] = Effect on circadian rhythms in C57BL/6 mouse assessed as phase delay in time at 30 mg/kg, sc qd for 10 days by wheel running assay; format: functional; conditions: time 10 day
[3] = Unbound Cmax in Sprague-Dawley rat at 5 mg/kg, po measured for 24 hrs by LC-MS/MS analysis; format: ADME, organism-based; conditions: in vivo
[4] = Intrinsic clearance in dog liver microsomes at 1 uM preincubated for 5 mins followed by NADPH addition measured for 60 mins by LC-MS/MS analysis; format: ADME, Canis lupus familiaris, Microsome; conditions: time 65 min, read-out: CLH
[5] = Cmax in brain of C57BL/6 mouse at 30 mg/kg, sc measured after 30 mins by LC/MS-MS analysis; format: ADME, organism-based; set-up: time 30 min, dose 30 mg/kg, route sc
[6] = Ratio of unbound fraction in brain to plasma of C57BL/6 mouse at 30 mg/kg, sc measured for 6 hrs by LC/MS-MS analysis; format: ADME, organism-based; conditions: read-out: K(p,uu,brain)
[7] = Oral bioavailability in Sprague-Dawley rat at 5 mg/kg measured for 24 hrs by LC-MS/MS analysis; format: ADME, organism-based; conditions: in vivo
[8] = tested on: Mus musculus; assay: Effect on circadian rhythms in C57BL/6 mouse assessed as phase shift at 30 mg/kg, sc qd measured after 4 to 10 days by wheel running assay; format: functional, organism-based; conditions: time 4-10 day
[9] = tested on: Brain; assay: Ex vivo receptor occupancy at CK1 delta in brain of C57BL/6 mouse at 30 mg/kg, sc measured for 6 hrs by autoradiography relative to control; format: functional
[10] = molecular target: Cytochrome P450 2D6 (Homo sapiens, UniProt P10635); assay: Inhibition of CYP2D6 in human liver microsomes incubated for 10 mins in presence of NADPH by LC-MS/MS analysis; format: ADME, Microsome
[11] = molecular target: Cytochrome P450 3A4 (Homo sapiens, UniProt P08684); assay: Inhibition of CYP3A4 in human liver microsomes using midazolam as substrate incubated for 5 mins in presence of NADPH by LC-MS/MS analysis; format: ADME, Microsome
[12] = Intrinsic clearance in rat liver microsomes at 1 uM preincubated for 5 mins followed by NADPH addition measured for 60 mins by LC-MS/MS analysis; format: ADME, Microsome; conditions: time 65 min, read-out: CLH
[13] = Clearance in Sprague-Dawley rat at 1 mg/kg, iv measured for 24 hrs by LC-MS/MS analysis; format: ADME, organism-based; conditions: in vivo
[14] = Unbound drug concentration in brain of C57BL/6 mouse at 30 mg/kg, sc measured for 6 hrs by LC/MS-MS analysis; format: ADME, organism-based; conditions: in vivo
[15] = Oral bioavailability in C57BL/6 mouse at 5 mg/kg measured for 6 hrs by LC/MS-MS analysis; format: ADME, organism-based; conditions: in vivo
[16] = Half life in Sprague-Dawley rat at 5 mg/kg, po measured for 24 hrs by LC-MS/MS analysis; format: ADME, organism-based; conditions: in vivo
[17] = molecular target: TRAF2 and NCK-interacting protein kinase (Homo sapiens, UniProt Q9UKE5); assay: Inhibition of TNIK (unknown origin)
[18] = molecular target: Cytochrome P450 2C9 (Homo sapiens, UniProt P11712); assay: Inhibition of CYP2C9 in human liver microsomes incubated for 10 mins in presence of NADPH by LC-MS/MS analysis; format: ADME, Microsome
[19] = molecular target: Cytochrome P450 2C19 (Homo sapiens, UniProt P33261); assay: Inhibition of CYP2C19 in human liver microsomes incubated for 10 mins in presence of NADPH by LC-MS/MS analysis; format: ADME, Microsome
[20] = Cmax in plasma of C57BL/6 mouse at 30 mg/kg, sc measured after 30 mins by LC/MS-MS analysis; format: ADME, organism-based; set-up: time 30 min, dose 30 mg/kg, route sc
[21] = molecular target: Casein kinase I isoform alpha (Homo sapiens, UniProt P48729); assay: Inhibition of CK1 alpha (unknown origin)
[22] = Cmax in plasma of C57BL/6 mouse at 30 mg/kg, sc measured for 6 hrs by LC/MS-MS analysis; format: ADME, organism-based; set-up: time 6 hrs, dose 30 mg/kg, route sc
[23] = Volume of distribution at steady state in Sprague-Dawley rat at 1 mg/kg, iv measured for 24 hrs by LC-MS/MS analysis; format: ADME, organism-based; conditions: in vivo, read-out: Vdss
[24] = Unbound drug concentration in plasma of C57BL/6 mouse at 30 mg/kg, sc measured for 6 hrs by LC/MS-MS analysis; format: ADME, organism-based; conditions: in vivo
[25] = AUC (infinity) in Sprague-Dawley rat at 5 mg/kg, po measured for 24 hrs by LC-MS/MS analysis; format: ADME, organism-based; set-up: time 24 hrs, dose 5 mg/kg, route po; conditions: in vivo
[26] = Cmax in brain of C57BL/6 mouse at 30 mg/kg, sc measured for 6 hrs by LC/MS-MS analysis; format: ADME, organism-based; set-up: time 6 hrs, dose 30 mg/kg, route sc
[27] = Cmax in Sprague-Dawley rat at 5 mg/kg, po measured for 24 hrs by LC-MS/MS analysis; format: ADME, organism-based; set-up: dose 5 mg/kg, time 24 hrs, route po; conditions: in vivo
[28] = molecular target: Cytochrome P450 2C8 (Homo sapiens, UniProt P10632); assay: Inhibition of CYP2C8 in human liver microsomes incubated for 10 mins in presence of NADPH by LC-MS/MS analysis; format: ADME, Microsome
[29] = Oral bioavailability in C57BL/6 mouse at 30 mg/kg measured for 6 hrs by LC/MS-MS analysis; format: ADME, organism-based; conditions: in vivo
[30] = molecular target: Cytochrome P450 1A2 (Homo sapiens, UniProt P05177); assay: Inhibition of CYP1A2 in human liver microsomes incubated for 10 mins in presence of NADPH by LC-MS/MS analysis; format: ADME, Microsome
[31] = Apparent permeability across apical to basal side in MDCK cells expressing MDR1 at 5 uM incubated for 60 mins by LC/MS/MS analysis; format: ADME, cell-based, Canis lupus familiaris, MDCK1; conditions: dog
[32] = molecular target: Casein kinase I isoform epsilon (Homo sapiens, UniProt P49674); assay: Inhibition of CK1 epsilon (unknown origin)
[33] = Cmax in C57BL/6 mouse at 5 mg/kg, po measured for 6 hrs by LC/MS-MS analysis; format: ADME, organism-based; set-up: dose 5 mg/kg, time 6 hrs, route po; conditions: in vivo
[34] = Intrinsic clearance in cynomolgus monkey liver microsomes at 1 uM preincubated for 5 mins followed by NADPH addition measured for 60 mins by LC-MS/MS analysis; format: ADME, Macaca fascicularis, Microsome; conditions: time 65 min, read-out: CLH
[35] = Intrinsic clearance in mouse liver microsomes at 1 uM preincubated for 5 mins followed by NADPH addition measured for 60 mins by LC-MS/MS analysis; format: ADME, Microsome; conditions: time 65 min, read-out: CLH
[36] = Intrinsic clearance in human liver microsomes at 1 uM preincubated for 5 mins followed by NADPH addition measured for 60 mins by LC-MS/MS analysis; format: ADME, Microsome; conditions: time 65 min, read-out: CLH
[37] = Cmax in plasma of C57BL/6 mouse at 30 mg/kg, sc measured after 15 mins by LC/MS-MS analysis; format: ADME, organism-based; set-up: dose 30 mg/kg, time 15 min, route sc
[38] = Cmax in brain of C57BL/6 mouse at 30 mg/kg, sc measured after 15 mins by LC/MS-MS analysis; format: ADME, organism-based; set-up: time 15 min, dose 30 mg/kg, route sc

Chain of Cytochrome P450 2C19 (P33261 whole entry): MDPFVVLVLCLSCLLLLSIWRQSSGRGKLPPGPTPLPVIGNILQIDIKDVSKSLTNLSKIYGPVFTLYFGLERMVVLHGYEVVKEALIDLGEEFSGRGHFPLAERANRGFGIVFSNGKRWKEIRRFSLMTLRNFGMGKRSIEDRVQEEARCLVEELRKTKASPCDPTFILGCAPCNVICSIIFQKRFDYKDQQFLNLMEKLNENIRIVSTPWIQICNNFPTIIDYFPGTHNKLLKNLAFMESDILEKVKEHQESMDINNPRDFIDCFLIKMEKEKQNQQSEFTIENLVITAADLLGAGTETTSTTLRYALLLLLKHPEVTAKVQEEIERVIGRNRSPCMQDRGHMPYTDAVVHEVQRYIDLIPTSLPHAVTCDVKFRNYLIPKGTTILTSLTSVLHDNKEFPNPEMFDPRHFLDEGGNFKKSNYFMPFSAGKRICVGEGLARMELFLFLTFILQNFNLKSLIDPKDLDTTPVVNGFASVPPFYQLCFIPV
Chain of Cytochrome P450 1A2 (P05177 whole entry): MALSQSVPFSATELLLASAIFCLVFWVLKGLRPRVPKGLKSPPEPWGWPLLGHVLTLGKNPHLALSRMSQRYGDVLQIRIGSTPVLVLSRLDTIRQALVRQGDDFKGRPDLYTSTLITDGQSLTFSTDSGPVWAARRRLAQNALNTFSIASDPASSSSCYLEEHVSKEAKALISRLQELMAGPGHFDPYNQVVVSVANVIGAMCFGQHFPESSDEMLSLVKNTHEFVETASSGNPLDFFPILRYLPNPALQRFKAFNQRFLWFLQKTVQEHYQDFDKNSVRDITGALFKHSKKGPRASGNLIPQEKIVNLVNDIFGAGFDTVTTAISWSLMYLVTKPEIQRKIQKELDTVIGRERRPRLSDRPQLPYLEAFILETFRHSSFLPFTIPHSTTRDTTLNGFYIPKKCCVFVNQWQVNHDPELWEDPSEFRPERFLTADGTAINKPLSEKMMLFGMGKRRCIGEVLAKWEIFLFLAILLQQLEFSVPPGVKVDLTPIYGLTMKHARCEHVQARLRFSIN
Chain of Casein kinase I isoform alpha (P48729 whole entry, canonical isoform): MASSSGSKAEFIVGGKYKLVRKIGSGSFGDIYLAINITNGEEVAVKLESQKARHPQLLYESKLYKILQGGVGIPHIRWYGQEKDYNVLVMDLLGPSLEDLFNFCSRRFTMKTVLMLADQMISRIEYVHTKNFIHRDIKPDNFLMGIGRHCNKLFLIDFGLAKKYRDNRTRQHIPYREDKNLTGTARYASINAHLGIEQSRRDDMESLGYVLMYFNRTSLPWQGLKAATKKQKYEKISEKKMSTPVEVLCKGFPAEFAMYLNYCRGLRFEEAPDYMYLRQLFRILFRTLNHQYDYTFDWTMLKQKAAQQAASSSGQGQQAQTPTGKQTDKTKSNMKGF
Chain of Casein kinase I isoform epsilon (P49674 whole entry, canonical isoform): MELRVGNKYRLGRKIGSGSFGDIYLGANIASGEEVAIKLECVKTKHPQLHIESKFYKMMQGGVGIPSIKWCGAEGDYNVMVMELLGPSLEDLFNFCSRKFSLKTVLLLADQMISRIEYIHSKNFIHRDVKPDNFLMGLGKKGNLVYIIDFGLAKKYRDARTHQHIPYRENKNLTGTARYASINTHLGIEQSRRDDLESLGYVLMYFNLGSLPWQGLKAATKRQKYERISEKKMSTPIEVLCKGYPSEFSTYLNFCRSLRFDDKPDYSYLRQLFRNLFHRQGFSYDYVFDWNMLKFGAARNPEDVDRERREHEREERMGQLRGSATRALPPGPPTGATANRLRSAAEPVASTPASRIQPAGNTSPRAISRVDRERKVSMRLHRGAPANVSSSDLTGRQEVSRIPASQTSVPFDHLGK
Chain of Cytochrome P450 3A4 (P08684 whole entry): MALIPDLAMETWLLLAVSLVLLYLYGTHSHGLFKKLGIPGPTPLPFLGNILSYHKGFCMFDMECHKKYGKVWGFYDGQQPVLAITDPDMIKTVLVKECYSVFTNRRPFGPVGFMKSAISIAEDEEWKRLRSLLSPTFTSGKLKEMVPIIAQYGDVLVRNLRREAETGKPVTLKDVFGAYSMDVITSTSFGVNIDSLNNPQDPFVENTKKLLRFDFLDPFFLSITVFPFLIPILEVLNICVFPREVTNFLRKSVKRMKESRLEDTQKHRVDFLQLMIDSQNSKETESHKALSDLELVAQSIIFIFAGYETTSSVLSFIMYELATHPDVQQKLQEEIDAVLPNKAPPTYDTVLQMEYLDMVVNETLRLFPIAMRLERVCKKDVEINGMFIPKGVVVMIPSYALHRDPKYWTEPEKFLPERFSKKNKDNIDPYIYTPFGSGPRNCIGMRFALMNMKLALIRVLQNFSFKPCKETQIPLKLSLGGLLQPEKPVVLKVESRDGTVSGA
Chain of Cytochrome P450 2D6 (P10635 whole entry): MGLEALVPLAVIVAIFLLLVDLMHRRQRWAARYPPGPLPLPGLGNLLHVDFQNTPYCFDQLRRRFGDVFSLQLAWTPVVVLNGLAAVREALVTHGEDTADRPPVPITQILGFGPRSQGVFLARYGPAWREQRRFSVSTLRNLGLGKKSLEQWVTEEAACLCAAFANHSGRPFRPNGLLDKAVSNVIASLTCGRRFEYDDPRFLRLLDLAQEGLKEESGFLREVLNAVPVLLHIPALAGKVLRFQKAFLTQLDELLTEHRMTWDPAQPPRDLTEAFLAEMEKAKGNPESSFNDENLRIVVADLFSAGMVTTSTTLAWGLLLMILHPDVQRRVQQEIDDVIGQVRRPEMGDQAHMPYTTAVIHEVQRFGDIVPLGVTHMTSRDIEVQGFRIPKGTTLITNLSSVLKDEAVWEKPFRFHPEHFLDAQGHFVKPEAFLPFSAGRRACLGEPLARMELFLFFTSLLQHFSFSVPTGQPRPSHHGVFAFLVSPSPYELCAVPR
Chain of Cytochrome P450 2C9 (P11712 whole entry): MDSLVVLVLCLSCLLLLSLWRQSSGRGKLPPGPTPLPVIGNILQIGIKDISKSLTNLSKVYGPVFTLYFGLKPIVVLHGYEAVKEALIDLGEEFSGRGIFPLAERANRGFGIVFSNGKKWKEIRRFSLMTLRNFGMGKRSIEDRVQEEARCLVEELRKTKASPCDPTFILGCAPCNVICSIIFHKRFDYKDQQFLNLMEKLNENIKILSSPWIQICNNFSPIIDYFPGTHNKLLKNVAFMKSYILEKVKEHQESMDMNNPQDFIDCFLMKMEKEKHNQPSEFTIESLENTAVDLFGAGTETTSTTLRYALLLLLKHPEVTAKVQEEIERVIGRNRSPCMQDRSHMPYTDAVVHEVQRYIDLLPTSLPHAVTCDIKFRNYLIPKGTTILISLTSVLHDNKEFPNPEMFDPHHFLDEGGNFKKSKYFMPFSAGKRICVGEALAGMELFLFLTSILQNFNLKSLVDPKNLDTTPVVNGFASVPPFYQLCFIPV
Chain of Cytochrome P450 2C8 (P10632 whole entry): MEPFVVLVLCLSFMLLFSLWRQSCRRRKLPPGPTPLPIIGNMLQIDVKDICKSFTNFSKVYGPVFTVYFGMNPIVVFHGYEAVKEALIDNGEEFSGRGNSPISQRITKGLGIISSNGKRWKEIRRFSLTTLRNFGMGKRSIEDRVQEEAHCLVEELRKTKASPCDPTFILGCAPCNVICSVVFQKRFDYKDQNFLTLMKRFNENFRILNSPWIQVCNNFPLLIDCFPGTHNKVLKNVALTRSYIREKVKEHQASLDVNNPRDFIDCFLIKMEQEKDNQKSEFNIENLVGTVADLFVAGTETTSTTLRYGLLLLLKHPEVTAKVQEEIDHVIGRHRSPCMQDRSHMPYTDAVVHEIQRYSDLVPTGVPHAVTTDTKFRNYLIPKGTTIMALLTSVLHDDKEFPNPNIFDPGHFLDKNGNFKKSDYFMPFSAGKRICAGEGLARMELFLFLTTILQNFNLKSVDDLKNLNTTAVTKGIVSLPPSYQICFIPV

## CC1(C)Cn2nc(-c3ccc(F)cn3)c(-c3ccnc4[nH]ncc34)c2CO1
[1]
  Activity: Active
[2]
  Time: 0.83 h
[3]
  fCmax: 0.15 µM
[4]
  microsomal CLint at 1 µM: < 7.7 µL/min/mg
[5]
  Cmax: 2300 nM
[6]
  Kp uu at 6 h: 0.23
[7]
  bioavailability: 19%
[8]
  Activity: Active
[9]
  Occ: 56%
[10]
  IC50: > 20 µM
[11]
  IC50: > 20 µM
[12]
  microsomal CLint at 1 µM: 17.2 µL/min/mg
[13]
  clearance: 104 mL/min/kg
[14]
  Drug uptake(free): 668 nM
[15]
  bioavailability: 4%
[16]
  half-life: 60 min
[17]
  IC50: 3.2 µM
[18]
  IC50: > 20 µM
[19]
  IC50: > 20 µM
[20]
  Cmax: 11300 nM
[21]
  IC50: 0.79 µM
[22]
  Cmax: 4110 ng/mL
[23]
  Vd: 1.2 L/kg
[24]
  Cp(f): 2899 nM
[25]
  AUC(0-inf): 150 ng·h/mL
[26]
  Cmax: 847 ng/g
[27]
  Cmax: 400 nM
[28]
  IC50: > 20 µM
[29]
  bioavailability: 53%
[30]
  IC50: > 20 µM
[31]
  Papp A→B at 1 h, 5 µM: 7.4 ×10⁻⁶ cm/s
[32]
  IC50: 0.093 µM
[33]
  Cmax: 700 nM
[34]
  microsomal CLint at 1 µM: 12.3 µL/min/mg
[35]
  microsomal CLint at 1 µM: 22.7 µL/min/mg

## [2H]C([2H])([2H])C1(C([2H])([2H])[2H])Cn2nc(-c3ccc(F)cn3)c(-c3ccnc4[nH]ncc34)c2CO1
[36]
  microsomal CLint at 1 µM: < 7.7 µL/min/mg
[2]
  Time: 1.25 h
[3]
  fCmax: 1.1 µM
[4]
  microsomal CLint at 1 µM: < 7.7 µL/min/mg
[6]
  Kp uu at 6 h: 0.13
[7]
  bioavailability: 85%
[9]
  Occ: 60%
[37]
  Cmax: 23900 nM
[10]
  IC50: > 20 µM
[38]
  Cmax: 3700 nM
[11]
  IC50: > 20 µM
[12]
  microsomal CLint at 1 µM: 8.5 µL/min/mg
[13]
  clearance: 44 mL/min/kg
[14]
  Drug uptake(free): 789 nM
[16]
  half-life: 48 min
[18]
  IC50: > 20 µM
[19]
  IC50: > 20 µM
[21]
  IC50: 0.41 µM
[22]
  Cmax: 8850 ng/mL
[23]
  Vd: 1 L/kg
[24]
  Cp(f): 6117 nM
[25]
  AUC(0-inf): 1940 ng·h/mL
[26]
  Cmax: 1350 ng/g
[27]
  Cmax: 3000 nM
[28]
  IC50: > 20 µM
[30]
  IC50: > 20 µM
[31]
  Papp A→B at 1 h, 5 µM: 4.8 ×10⁻⁶ cm/s
[32]
  IC50: 0.11 µM
[34]
  microsomal CLint at 1 µM: < 7.7 µL/min/mg
[35]
  microsomal CLint at 1 µM: < 7.7 µL/min/mg
